Reference: the supplement of paper PMC10307832

Columns and labels:
Experiment in all cases: relative viability (nuclei count vs DMSO), 5 days (fraction); higher = more cells survive
[1] = compound: C1COCCN1CC2=CC(=O)C(=CO2)OCCCCCSC3=C4C=CC(=CC4=NC=C3)C(F)(F)F [EHT 1864] + COc1cccc2cc(-c3nc([C@H]4CC[C@H](C(=O)O)CC4)n4ncnc(N)c34)[nH]c12 [OSI-027] (partner 0.5 µM)
In short: (§1)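 Nuclei were stained with Hoechst during a one-step fixation (final 0.05% Triton X-100, 1% formaldehyde, 1 ug/ml Hoechst) carried out 5 days after dosing, then counted on 4× images. The cells, lung cancer lines in 1536-well plates, had been dosed by pin tool the day after seeding with one drug alone or a fixed anchor-drug dose plus five library-drug doses (not always all listed) in √10 steps. Relative viability is the nuclei count in treated wells divided by that in vehicle wells, and each value is the median of duplicate plates.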

[2] = compound: C1COCCN1CC2=CC(=O)C(=CO2)OCCCCCSC3=C4C=CC(=CC4=NC=C3)C(F)(F)F [EHT 1864] + C[C@@H](Oc1cc(-c2cnn(C3CCNCC3)c2)cnc1N)c1c(Cl)ccc(F)c1Cl [Crizotinib] (partner 1 µM)
In short: as §1

[3] = compound: C1COCCN1CC2=CC(=O)C(=CO2)OCCCCCSC3=C4C=CC(=CC4=NC=C3)C(F)(F)F [EHT 1864] + C[C@]1(O)C[C@@H](c2nc(-c3ccc4ccc(-c5ccccc5)nc4c3)c3c(N)nccn32)C1 [Linsitinib] (partner 1 µM)
In short: as §1

[4] = compound: C1COCCN1CC2=CC(=O)C(=CO2)OCCCCCSC3=C4C=CC(=CC4=NC=C3)C(F)(F)F [EHT 1864] + Cc1cc(Nc2cc(N3CCN(C)CC3)nc(Sc3ccc(NC(=O)C4CC4)cc3)n2)n[nH]1 [Tozasertib] (partner 0.1 µM)
In short: as §1

| Cell Line | relative viability ([1]; first compound 0.04 µM) | relative viability ([1]; first compound 0.1265 µM) | relative viability ([1]; first compound 0.4 µM) | relative viability ([1]; first compound 1.265 µM) | relative viability ([1]; first compound 4 µM) | relative viability ([2]; first compound 0.04 µM) | relative viability ([2]; first compound 0.1265 µM) | relative viability ([2]; first compound 0.4 µM) | relative viability ([2]; first compound 1.265 µM) | relative viability ([2]; first compound 4 µM) | relative viability ([3]; first compound 0.04 µM) | relative viability ([3]; first compound 0.1265 µM) | relative viability ([3]; first compound 0.4 µM) | relative viability ([3]; first compound 1.265 µM) | relative viability ([3]; first compound 4 µM) | relative viability ([4]; first compound 0.04 µM) | relative viability ([4]; first compound 0.1265 µM) | relative viability ([4]; first compound 0.4 µM) | relative viability ([4]; first compound 1.265 µM) | relative viability ([4]; first compound 4 µM) |
| --- | --- | --- | --- | --- | --- | --- | --- | --- | --- | --- | --- | --- | --- | --- | --- | --- | --- | --- | --- | --- |
| NCI-H1651 | 0.704 | 0.675 | 0.75 | 0.647 | 0.69 | 0.865 | 0.798 | 0.826 | 0.801 | 0.843 | 1.07 | 0.885 | 0.992 | 0.931 | 0.996 | 0.631 | 0.705 | 0.549 | 0.479 | 0.523 |
| LCLC-103H | 0.454 | 0.365 | 0.461 | 0.44 | 0.413 | 1.15 | 1.03 | 1.02 | 1.05 | 1.01 | 1.12 | 0.83 | 1.01 | 1.09 | 1.39 | 0.455 | 0.305 | 0.543 | 0.441 | 0.475 |
| NCI-H1666 | 0.887 | 0.691 | 0.8 | 0.81 | 0.833 | 0.771 | 0.867 | 1.2 | 0.965 | 1.01 | 0.828 | 0.74 | 0.837 | 0.73 | 0.912 | 0.646 | 0.591 | 0.543 | 0.647 | 0.554 |
| NCI-H1734 | 0.706 |  | 0.611 | 0.66 | 0.592 | 0.67 | 0.626 | 0.632 | 0.723 | 0.721 | 0.867 | 0.902 | 0.863 | 0.919 | 0.77 | 0.282 |  | 0.265 | 0.273 | 0.259 |
| EPLC-272H | 0.296 | 0.254 | 0.257 | 0.324 | 0.253 | 0.928 | 0.861 | 0.855 | 0.915 | 1.01 | 1.4 | 1.16 | 1.04 | 1.32 | 1.25 | 0.299 | 0.352 | 0.143 | 0.314 | 0.284 |
| NCI-H2023 | 0.373 | 0.314 | 0.375 | 0.313 | 0.369 | 0.675 | 0.714 | 0.632 | 0.666 | 0.617 | 0.586 | 0.717 | 0.612 | 0.656 | 0.602 | 0.281 | 0.294 | 0.29 | 0.248 | 0.207 |
| BEN | 0.303 | 0.278 | 0.297 | 0.299 | 0.302 | 0.979 | 0.775 | 0.753 | 0.885 | 0.964 | 0.862 | 0.801 | 0.879 | 0.851 | 0.985 | 0.544 | 0.433 | 0.547 | 0.461 | 0.481 |
| COR-L 105 | 0.773 | 0.559 | 0.851 | 0.61 | 0.655 | 0.614 | 0.732 | 1.05 | 0.774 | 0.74 | 0.889 | 0.963 | 0.906 | 1.12 | 0.848 | 0.343 | 0.36 | 0.367 | 0.369 | 0.693 |
| ABC-1 | 0.469 | 0.504 | 0.48 | 0.513 | 0.436 | 1.35 | 1.03 | 0.991 | 0.733 | 0.759 | 0.769 | 0.797 | 0.73 | 0.718 | 0.555 | 0.15 | 0.164 | 0.185 | 0.189 | 0.195 |
| HCC-15 | 0.608 |  | 0.704 | 0.66 | 0.615 | 0.752 | 0.635 | 0.801 | 0.82 | 0.821 | 0.877 | 0.827 | 0.888 | 0.86 | 0.922 | 0.377 |  | 0.398 | 0.319 | 0.247 |
| NCI-H358 | 0.842 | 0.745 | 0.863 | 0.799 | 0.685 | 0.604 |  | 0.616 | 0.517 | 0.579 | 0.759 |  | 0.738 | 0.794 | 0.639 | 0.113 | 0.128 | 0.104 | 0.102 | 0.0985 |
| PC-3 [JPC-3] | 0.743 | 0.575 | 0.742 | 0.732 | 0.646 | 0.973 | 0.979 | 0.925 | 0.909 | 1.01 | 0.982 | 0.938 | 0.942 | 0.949 | 0.952 | 0.818 | 0.812 | 0.903 | 0.896 | 0.843 |
| NCI-H1993 | 0.548 |  | 0.541 | 0.554 | 0.553 | 0.882 | 0.78 | 0.751 | 0.817 | 0.958 | 0.735 | 0.757 | 0.709 | 0.778 | 0.695 | 0.581 |  | 0.549 | 0.575 | 0.536 |
| SK-MES-1 | 0.628 | 0.542 | 0.572 | 0.592 | 0.562 | 1 | 0.972 | 1.04 | 0.968 | 0.996 | 1.06 | 1.06 | 1.17 | 1.16 | 1.09 | 0.972 | 0.885 | 0.888 | 0.823 | 0.81 |
| NCI-H1915 | 0.657 |  | 0.641 | 0.599 | 0.545 | 0.86 |  | 0.922 | 0.87 | 0.887 | 1.13 |  | 1.04 | 1.1 | 1.08 | 0.413 |  | 0.41 | 0.406 | 0.392 |
| RERF-LC-KJ | 0.621 | 0.539 | 0.52 | 0.575 | 0.541 | 0.794 | 0.816 | 0.769 | 0.784 | 0.787 | 0.874 | 0.884 | 0.861 | 0.861 | 0.847 | 0.493 | 0.473 | 0.523 | 0.381 | 0.352 |
| LOU-NH91 | 0.721 | 0.572 | 0.768 | 0.777 | 0.66 | 0.764 | 0.73 | 0.741 | 0.733 | 0.758 | 0.975 | 0.875 | 1.06 | 1.1 | 0.767 | 0.614 | 0.551 | 0.67 | 0.609 | 0.69 |
